Reference: PMC9145193 (Molecules, 2022)
“And” between values parts separate entries of the source, which are not always exact repeats. Equal entries are not always repeated. Where two headings read alike, the source gives them in different places.

Tests used:
[1] = DPPH free radical scavenging assay; details: 50 μM, mean ± SEM
Method: DPPH assay was used to evaluate the free radical scavenging ability of the representative compound 10a, while Trolox was used as a control.
Compound 10a was tested for free radical-scavenging activity using 1,1-diphenyl-2-picryl-hydrazyl (DPPH) (D9132, Merck, Kenilworth, NJ, USA). To make a 0.1 mM concentration of DPPH stock solution, DPPH was dissolved in methanol. […] Trolox was used as a reference. The absorbance was measured at 545 nm after 30 min of reaction at 25 °C.

SH-SY5Y cells = assay: Cytotoxicity assay on SH-SY5Y cells (MTT); type: cell-based; details: 10, 25 and 50 μM, 24 h
Method: To evaluate the cytotoxicity of these new compounds, cell viability was tested on SH-SY5Y cells.
SH-SY5Y cells were grown in a 25 cm^2 culture flask in fresh MEM/F12 medium, supplemented with 10% fetal bovine serum, 100 U/mL penicillin, and 100 µg/mL streptomycin, and incubated at 37 °C with 5% CO2. Cells were seeded at a density of 1 × 10^4 cells per well in a 96-well plate. After incubation for 24 h, medium was removed. […] After 24 h treatment, 10 μL of 3-(4,5-dimethyl-2-thiazolyl)-2,5-diphenyl-2-H-tetrazolium bromide was added into each well. After 4 h of incubation at 37 °C, 100 μL of DMSO was added to dissolve the formazan crystals, and the mixture’s absorbance was measured at 490 nm under a microplate reader (FC/K3, Thermo, Waltham, MA, USA). The survival rate was estimated using the formula Ae/Ab × 100%, where Ae and Ab represent the absorbance of SH-SY5Y cells in the presence and absence of the tested drugs, respectively. Each experiment was replicated three times.

AChE = target: T1, AChE (Electrophorus electricus, UniProt O42275); assay: Kinetic study of AChE inhibition (Lineweaver-Burk); type: biochemical; details: 10a at 0, 0.8 and 1.6 nM
T1 construct: purchased Merck C3389
Method: The mechanistic inhibition study of compound 10a on the AChE was carried out through kinetic parameters such as maximal velocity (Vmax), inhibitory concentration (Ki) and Michalis–Menten dissociation constant (Km).
Kinetic study of AChE inhibition was carried out using Ellman’s method, which is the same as the AChE assay, to determine the kinetic mechanism of chemical inhibition. The kinetic inhibition of compound 10a was analyzed at concentrations of 0.8 and 1.6nM. Lineweaver–Burk reciprocal plots were created by graphing 1/velocity vs. 1/[substrate] at various concentrations of substrate acetylthiocholine. The software GraphPad Prism 8.0 was used to analyze the data.

[2] = target: T2, AChE enzyme from electrophorus electricus (eeAChE) (Electrophorus electricus, UniProt O42275); assay: biochemical; details: mean ± SEM from three independent experiments
T2 construct: purchased Merck C3389
Method: Donepezil was used as a positive control.
AChE activity was measured by the […] using AChE enzyme from electrophorus electricus (eeAChE) (C3389, Merck, Kenilworth, NJ, USA). AChE solution (2 U/mL) was prepared with 0.1 M phosphate buffer (pH 8.0) firstly. Varied concentrations of test compounds (20 μL), 1 mM 5′-dithiobis (2-nitrobenzoic acid) (DTNB) solution (100 μL), and AChE solution (40 μL) were added in order to each well of a 96-well plate. After incubation for 15 min at 37 °C, the reaction was initiated by adding 20 μL of acetylthiocholine iodide (1 mM) to the mixed solution. The absorbance of each plate was instantly measured at 405 nm using a microplate reader. The inhibition of each compound was estimated using the formula (1−Ai/Ac) × 100, where Ai and Ac represent the absorbance of AChE in the presence and absence of inhibitors, respectively. Each experiment was replicated three times. Plotting curves of log concentration via percentage of inhibition, the IC50 values of all tested compounds were graphically analyzed (Graph Pad Prism 8.0).

Aβ = target: T3, Aβ (Homo sapiens, UniProt P05067); assay: Self-induced Aβ aggregation inhibition by thioflavin T assay; type: biochemical; details: read-out: Aβ Aggregation Inhibition (%)
T3 construct: Aggregation of β-amyloid peptide (Aβ) is one of the main histopathological hallmarks of AD; purchased Beyotime P9001
Method: Aggregation of β-amyloid peptide (Aβ) is one of the main histopathological hallmarks of AD [34].
A total of 1mg Aβ (P9001, Beyotime, Shanghai, China) was dissolved in 1 mL of hexafluoroisopropanol and aliquoted into 50 μL per tube. Then, 20 μL of DMSO was added into one tube of Aβ solution. The test compound was prepared as a 10 mM of stock solution with DMSO and diluted to 50 μM with PBS (including the control). Then, 20 μL of the test compound and 20 μL of the Aβ solution were added to a 96-well black plate, which was gently tapped to mix the solution, covered tightly and sealed with black tape to prevent evaporation of the solvent, and left in the dark at room temperature for 24 h. Then. 160 μL of THT solution at a concentration of 5 μM was added and the fluorescence absorption was measured at an excitation wavelength of 445 nm and an emission wavelength of 490 nm. The software GraphPad Prism 8.0 was used to analyze the data.

T2 sequence (O42275 24-633): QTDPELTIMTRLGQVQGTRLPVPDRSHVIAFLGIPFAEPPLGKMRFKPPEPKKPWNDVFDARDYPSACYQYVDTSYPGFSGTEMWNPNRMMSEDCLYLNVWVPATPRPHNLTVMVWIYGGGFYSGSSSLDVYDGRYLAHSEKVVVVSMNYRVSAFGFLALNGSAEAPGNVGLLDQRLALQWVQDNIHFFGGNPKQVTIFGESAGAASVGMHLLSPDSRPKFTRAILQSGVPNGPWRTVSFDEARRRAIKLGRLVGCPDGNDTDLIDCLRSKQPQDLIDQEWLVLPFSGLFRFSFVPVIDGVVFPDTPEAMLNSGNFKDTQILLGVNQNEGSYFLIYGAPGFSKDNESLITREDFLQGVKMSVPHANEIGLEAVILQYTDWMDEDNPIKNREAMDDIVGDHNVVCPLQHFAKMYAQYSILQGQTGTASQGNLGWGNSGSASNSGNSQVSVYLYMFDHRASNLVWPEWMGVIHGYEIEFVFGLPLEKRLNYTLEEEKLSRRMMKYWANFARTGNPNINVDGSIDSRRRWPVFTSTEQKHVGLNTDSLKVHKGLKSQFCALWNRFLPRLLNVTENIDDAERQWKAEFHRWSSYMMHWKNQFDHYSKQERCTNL
T3 sequence (P05067 672-713): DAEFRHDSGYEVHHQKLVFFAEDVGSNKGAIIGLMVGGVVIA
T1 sequence (O42275 24-633): as the sequence (O42275 24-633) above

Row | Structure (SMILES) | IC50 [2] [nM] | further results
1 | COc1cc2c(cc1OC)C(=O)/C(=C/c1cc[n+](Cc3ccccc3)cc1C(C)=O)OC2.[Br-] [10a, (Z)-3-Acetyl-1-benzyl-4-((6,7-dimethoxy-4-oxoisochroman-3-ylidene)methyl)pyridin-1-ium bromide] | 1.61 ± 0.02 | Reduced DPPH (%) [1]: 31.89% and 31.89 ± 3.23%; Cell viability on SH-SY5Y cells (SH-SY5Y cells): did not significantly alter cell viability; Type of AChE inhibition (Lineweaver-Burk plot) (AChE): mixed-type inhibitor; inhibition at 25 µM (Aβ): 57 ± 2.68%
2 | COc1cc2c(cc1OC)C(=O)/C(=C/c1cc[n+](Cc3ccccc3F)cc1C(N)=O)OC2.[Br-] [13b, (Z)-3-Carbamoyl-4-((6,7-dimethoxy-4-oxoisochroman-3-ylidene)methyl)-1-(2-fluorobenzyl)pyridin-1-ium Bromide] | 3.54 ± 0.05 | Cell viability on SH-SY5Y cells (SH-SY5Y cells): did not significantly alter cell viability
3 | COc1cc2c(cc1OC)C(=O)/C(=C/c1cc[n+](Cc3cccc(Br)c3)cc1C(N)=O)OC2 [13i, (Z)-1-(3-Bromobenzyl)-3-carbamoyl-4-((6,7-dimethoxy-4-oxoisochroman-3-ylidene)methyl)pyridin-1-ium Bromide] | 38.1 ± 0.92 | 
4 | COc1cc2c(cc1OC)C(=O)/C(=C/c1cc[n+](Cc3ccc(Br)cc3)cc1C(N)=O)OC2 [13j, (Z)-1-(4-Bromobenzyl)-3-carbamoyl-4-((6,7-dimethoxy-4-oxoisochroman-3-ylidene)methyl)pyridin-1-ium Bromide] | 422 ± 5.92 | 
5 | COc1cc2c(cc1OC)C(=O)/C(=C/c1cc[n+](Cc3ccccc3C)cc1C(N)=O)OC2 [13k, (Z)-3-Carbamoyl-4-((6,7-dimethoxy-4-oxoisochroman-3-ylidene)methyl)-1-(2-methylbenzyl)pyridin-1-ium Bromide] | 12.1 ± 0.9 | 
6 | COc1cc2c(cc1OC)C(=O)/C(=C/c1cc[n+](Cc3cccc(C)c3)cc1C(N)=O)OC2 [13l, (Z)-3-Carbamoyl-4-((6,7-dimethoxy-4-oxoisochroman-3-ylidene)methyl)-1-(3-methylbenzyl)pyridin-1-ium Bromide] | 16.26 ± 0.12 | 
7 | COc1cc2c(cc1OC)C(=O)/C(=C/c1cc[n+](Cc3ccc(C)cc3)cc1C(N)=O)OC2 [13m, (Z)-3-Carbamoyl-4-((6,7-dimethoxy-4-oxoisochroman-3-ylidene)methyl)-1-(4-methylbenzyl)pyridin-1-ium Bromide] | 42.47 ± 0.25 | 
8 | COc1cc2c(cc1OC)C(=O)/C(=C/c1cc[n+](Cc3ccccc3C(F)(F)F)cc1C(N)=O)OC2 [13n, (Z)-3-Carbamoyl-4-((6,7-dimethoxy-4-oxoisochroman-3-ylidene)methyl)-1-(2-(trifluoromethyl)benzyl)pyridin-1-ium Bromide] | 30.7 ± 0.71 | 
9 | COc1cc2c(cc1OC)C(=O)/C(=C/c1cc[n+](Cc3cccc(C(F)(F)F)c3)cc1C(N)=O)OC2 [13o, (Z)-3-Carbamoyl-4-((6,7-dimethoxy-4-oxoisochroman-3-ylidene)methyl)-1-(3-(trifluoromethyl)benzyl)pyridin-1-ium Bromide] | 43 ± 0.44 | 
10 | COc1cc2c(cc1OC)C(=O)/C(=C/c1cc[n+](Cc3ccc(C(F)(F)F)cc3)cc1C(N)=O)OC2 [13p, (Z)-3-Carbamoyl-4-((6,7-dimethoxy-4-oxoisochroman-3-ylidene)methyl)-1-(4-(trifluoromethyl)benzyl)pyridin-1-ium Bromide] | 441 ± 7.82 | 
11 | Oc1ccc(/C=C/c2cc(O)cc(O)c2)cc1 [Resveratrol, reference compound] |  | inhibition at 25 µM (Aβ; 25 μM, self-induced, thioflavin T, mean ± SEM): 83.3 ± 5.23%
12 | Cc1c(C)c2c(c(C)c1O)CCC(C)(C(=O)O)O2 (centres unmarked) [Trolox, reference compound] |  | Reduced DPPH (%) [1]: 72.41 ± 4.23%
